In patent US20070082880A1 (priority 2005, published 2007) one finds IC50 data, which are given here for 32 molecules.

The pIC50 is the negative decadic logarithm of the IC50, by convention in mol/L. The low end stands for a high IC50, the high end for a low IC50.

The structures appear in SMILES notation. pIC50: −log10 of the molar value.

In this test the target is T1, human PKCθ full length enzyme (Homo sapiens, UniProt Q04759).
T1 construct: human PKCθ full length enzyme (Panvera Catalog No. P2996); purchased Panvera P2996
T1 sequence (Q04759 whole entry): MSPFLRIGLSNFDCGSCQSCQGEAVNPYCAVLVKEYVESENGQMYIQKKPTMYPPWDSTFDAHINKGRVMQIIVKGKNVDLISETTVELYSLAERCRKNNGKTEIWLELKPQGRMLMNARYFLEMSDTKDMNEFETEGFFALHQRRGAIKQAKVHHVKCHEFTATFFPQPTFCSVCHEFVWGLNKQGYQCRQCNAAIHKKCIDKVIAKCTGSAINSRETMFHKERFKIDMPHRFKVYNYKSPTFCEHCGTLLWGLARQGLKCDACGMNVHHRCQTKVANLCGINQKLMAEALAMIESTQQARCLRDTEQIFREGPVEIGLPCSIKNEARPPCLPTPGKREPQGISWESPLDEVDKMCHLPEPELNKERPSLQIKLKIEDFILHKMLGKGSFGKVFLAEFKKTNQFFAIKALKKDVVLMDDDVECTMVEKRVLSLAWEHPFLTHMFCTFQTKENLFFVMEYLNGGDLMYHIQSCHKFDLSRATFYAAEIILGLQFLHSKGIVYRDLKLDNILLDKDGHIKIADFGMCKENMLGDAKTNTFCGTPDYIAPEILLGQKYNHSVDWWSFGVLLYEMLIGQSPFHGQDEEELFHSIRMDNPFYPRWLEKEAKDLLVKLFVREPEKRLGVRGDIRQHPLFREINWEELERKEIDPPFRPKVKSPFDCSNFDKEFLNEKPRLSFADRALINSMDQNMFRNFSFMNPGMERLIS
Kind of test: PKCθ IMAP Assay. The following applies: average value when one or more samples were tested; ATP 6 uM, PKCθ 1 nM. Type of test: biochemical. The essentials:
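Full-length human PKCθ (1 nM final) with 6 uM ATP and 100 nM 5FAM-labelled peptide, 5% DMSO, 3.0 mM DTT in reaction buffer. 25 min at room temperature; IMAP bead binding 20 min, fluorescence polarization read. Compounds 2:1 serially diluted; no-ATP and no-enzyme wells as controls.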
With `Cc1c(Nc2c(C#N)cnc3sc(-c4ccc(S(=O)(=O)NCCN(C)C)cc4)cc23)ccc2[nH]ccc12` [Compound 345, 4-{5-cyano-4-[(4-methyl-1H-indol-5-yl)amino]thieno[2,3-b]pyridin-2-yl}-N-[2-(dimethylamino)ethyl]benzenesulfonamide], the pIC50 was 7.51.
The molecule `Cc1c(Nc2c(C#N)cnc3sc(-c4ccc(S(=O)(=O)N(C)CCN(C)C)cc4)cc23)ccc2[nH]ccc12` [Compound 346, 4-{5-cyano-4-[(4-methyl-1H-indol-5-yl)amino]thieno[2,3-b]pyridin-2-yl}-N-[2-(dimethylamino)ethyl]-N-methylbenzenesulfonamide] had a pIC50 of 7.32.
The value for `Cc1c(Nc2c(C#N)cnc3sc(-c4cccc(C(C)N(C)C)c4)cc23)ccc2[nH]ccc12` (centres unmarked) [Compound 347, 2-{3-[1-(dimethylamino)ethyl]phenyl}-4-[(4-methyl-1H-indol-5-yl)amino]thieno[2,3-b]pyridine-5-carbonitrile] was 7.89; that for `Cc1c(Nc2c(C#N)cnc3sc(-c4cccc(C(=O)N(C)CCN(C)C)c4)cc23)ccc2[nH]ccc12` [Compound 348, 3-{5-cyano-4-[(4-methyl-1H-indol-5-yl)amino]thieno[2,3-b]pyridin-2-yl}-N-[2-(dimethylamino)ethyl]-N-methylbenzamide] was 7.74.
Turning to `Cc1c(Nc2c(C#N)cnc3sc(-c4ccc(C(=O)NCCN(C)C)cc4)cc23)ccc2[nH]ccc12` [Compound 349, 4-{5-cyano-4-[(4-methyl-1H-indol-5-yl)amino]thieno[2,3-b]pyridin-2-yl}-N-[2-(dimethylamino)ethyl]benzamide], the pIC50 is 7.80.
As for `Cc1c(Nc2c(C#N)cnc3sc(-c4ccc(OCCCN(C)C)nc4)cc23)ccc2[nH]ccc12` [Compound 350, 2-{6-[3-(dimethylamino)propoxy]pyridin-3-yl}-4-[(4-methyl-1H-indol-5-yl)amino]thieno[2,3-b]pyridine-5-carbonitrile], the negative-log IC50 (pIC50) is 7.47.
The result for `Cc1c(Nc2c(C#N)cnc3sc(-c4ccc(OCCCl)cc4)cc23)ccc2[nH]ccc12` [Compound 351, 2-[4-(2-chloroethoxy)phenyl]-4-[(4-methyl-1H-indol-5-yl)amino]thieno[2,3-b]pyridine-5-carbonitrile] reads 6.92; that for `Cc1c(Nc2c(C#N)cnc3sc(-c4ccc(NCCN5CCOCC5)nc4)cc23)ccc2[nH]ccc12` [Compound 352, 4-[(4-methyl-1H-indol-5-yl)amino]-2-{6-[(2-morpholin-4-ylethyl)amino]pyridin-3-yl}thieno[2,3-b]pyridine-5-carbonitrile], 7.64; that for `Cc1c(Nc2c(C#N)cnc3sc(-c4cccc(C(=O)N(C)C)c4)cc23)ccc2[nH]ccc12` [Compound 353, 3-{5-cyano-4-[(4-methyl-1H-indol-5-yl)amino]thieno[2,3-b]pyridin-2-yl}-N,N-dimethylbenzamide], 7.44.
With `CON(C)C(=O)c1cccc(-c2cc3c(Nc4ccc5[nH]ccc5c4C)c(C#N)cnc3s2)c1` [Compound 354, 3-{5-cyano-4-[(4-methyl-1H-indol-5-yl)amino]thieno[2,3-b]pyridin-2-yl}-N-methoxy-N-methylbenzamide], the negative-log IC50 (pIC50) is 7.74.
`CON(C)C(=O)c1ccc(-c2cc3c(Nc4ccc5[nH]ccc5c4C)c(C#N)cnc3s2)cc1` [Compound 357, 4-{5-cyano-4-[(4-methyl-1H-indol-5-yl)amino]thieno[2,3-b]pyridin-2-yl}-N-methoxy-N-methylbenzamide]: the negative-log IC50 (pIC50) is 7.32.
`CONC(=O)c1ccc(-c2cc3c(Nc4ccc5[nH]ccc5c4C)c(C#N)cnc3s2)cc1` [Compound 358, 4-{5-cyano-4-[(4-methyl-1H-indol-5-yl)amino]thieno[2,3-b]pyridin-2-yl}-N-methoxybenzamide] gave a pIC50 of 8.00.
With `CS(=O)(=O)Nc1cccc(-c2cc3c(Nc4ccc5[nH]ccc5c4)c(C#N)cnc3s2)c1` [Compound 359, N-{3-[5-cyano-4-(1H-indol-5-ylamino)thieno[2,3-b]pyridin-2-yl]phenyl}methanesulfonamide], the negative-log IC50 (pIC50) was 6.61.
Consider `Cc1c(Nc2c(C#N)cnc3sc(-c4cccc(NS(C)(=O)=O)c4)cc23)ccc2[nH]ccc12` [Compound 360, N-(3-{5-cyano-4-[(4-methyl-1H-indol-5-yl)amino]thieno[2,3-b]pyridin-2-yl}phenyl)methanesulfonamide], for which the pIC50 was 7.64.
Consider `Cc1c(Nc2c(C#N)cnc3sc(-c4ccc(NS(C)(=O)=O)cc4)cc23)ccc2[nH]ccc12` [Compound 361, N-(4-{5-cyano-4-[(4-methyl-1H-indol-5-yl)amino]thieno[2,3-b]pyridin-2-yl}phenyl)methanesulfonamide], for which the pIC50 was 7.37.
Consider `Cc1c(Nc2c(C#N)cnc3sc(-c4ccc5ccccc5c4)cc23)ccc2[nH]ccc12` [Compound 362, 4-[(4-methyl-1H-indol-5-yl)amino]-2-(2-naphthyl)thieno[2,3-b]pyridine-5-carbonitrile], for which the pIC50 is 7.14.
`Cc1c(Nc2c(C#N)cnc3sc(-c4cccc5ccccc45)cc23)ccc2[nH]ccc12` [Compound 363, 4-[(4-methyl-1H-indol-5-yl)amino]-2-(1-naphthyl)thieno[2,3-b]pyridine-5-carbonitrile] gave a pIC50 of 6.40.
Turning to `COc1ccccc1-c1cc2c(Nc3ccc4[nH]ccc4c3C)c(C#N)cnc2s1` [Compound 364, 2-(2-methoxyphenyl)-4-[(4-methyl-1H-indol-5-yl)amino]thieno[2,3-b]pyridine-5-carbonitrile], the negative logarithm of the IC50 (pIC50) is 7.66.
The molecule `Cc1c(Nc2c(C#N)cnc3sc(-c4cc(C=O)cc(OC(C)C)c4)cc23)ccc2[nH]ccc12` [Compound 365, 2-(3-formyl-5-isopropoxyphenyl)-4-[(4-methyl-1H-indol-5-yl)amino]thieno[2,3-b]pyridine-5-carbonitrile] gave a pIC50 of 6.99.
With `COc1ccc(C)cc1-c1cc2c(Nc3ccc4[nH]ccc4c3C)c(C#N)cnc2s1` [Compound 366, 2-(2-methoxy-5-methylphenyl)-4-[(4-methyl-1H-indol-5-yl)amino]thieno[2,3-b]pyridine-5-carbonitrile], the pIC50 was 6.97.
Turning to `CCOc1ccc(CN(C)C)cc1-c1cc2c(Nc3ccc4[nH]ccc4c3C)c(C#N)cnc2s1` [Compound 367, 2-{5-[(dimethylamino)methyl]-2-ethoxyphenyl}-4-[(4-methyl-1H-indol-5-yl)amino]thieno[2,3-b]pyridine-5-carbonitrile], the pIC50 was 8.15.
In turn, `Cc1ccc(CN(C)C)cc1-c1cc2c(Nc3ccc4[nH]ccc4c3C)c(C#N)cnc2s1` [Compound 368, 2-{5-[(dimethylamino)methyl]-2-methylphenyl}-4-[(4-methyl-1H-indol-5-yl)amino]thieno[2,3-b]pyridine-5-carbonitrile] showed a pIC50 of 7.00.
In the case of `COc1ccc(C(=O)N(C)C)cc1-c1cc2c(Nc3ccc4[nH]ccc4c3C)c(C#N)cnc2s1` [Compound 369, 3-{5-cyano-4-[(4-methyl-1H-indol-5-yl)amino]thieno[2,3-b]pyridin-2-yl}-4-methoxy-N,N-dimethylbenzamide], the pIC50 is 7.52.
Regarding `CS(=O)(=O)Nc1ccccc1-c1cc2c(Nc3ccc4[nH]ccc4c3)c(C#N)cnc2s1` [Compound 370, N-{2-[5-cyano-4-(1H-indol-5-ylamino)thieno[2,3-b]pyridin-2-yl]phenyl}methanesulfonamide], the negative-log IC50 (pIC50) was 5.99.
For `Cc1c(Nc2c(C#N)cnc3sc(-c4ccccc4NS(C)(=O)=O)cc23)ccc2[nH]ccc12` [Compound 371, N-(2-{5-cyano-4-[(4-methyl-1H-indol-5-yl)amino]thieno[2,3-b]pyridin-2-yl}phenyl)methanesulfonamide], the negative-log IC50 (pIC50) was 6.74.
For `Cc1c(Nc2c(C#N)cnc3sc(-c4ccc(NS(C)(=O)=O)cc4)c(C)c23)ccc2[nH]ccc12` [Compound 372, N-(4-{5-cyano-3-methyl-4-[(4-methyl-1H-indol-5-yl)amino]thieno[2,3-b]pyridin-2-yl}phenyl)methanesulfonamide], the pIC50 is 6.20.
As to `Cc1c(Nc2c(C#N)cnc3sc(-c4cc5ccccc5s4)cc23)ccc2[nH]ccc12` [Compound 373, 2-(1-benzothien-2-yl)-4-[(4-methyl-1H-indol-5-yl)amino]thieno[2,3-b]pyridine-5-carbonitrile], the negative-log IC50 (pIC50) was 7.24.
On to `Cc1c(Nc2c(C#N)cnc3sc(-c4cc5cc(C=O)ccc5s4)cc23)ccc2[nH]ccc12` [Compound 374, 2-(5-formyl-1-benzothien-2-yl)-4-[(4-methyl-1H-indol-5-yl)amino]thieno[2,3-b]pyridine-5-carbonitrile], for which the pIC50 was 6.85.
`Cc1c(Nc2c(C#N)cnc3sc(-c4cccc(S(C)(=O)=O)c4)cc23)ccc2[nH]ccc12` [Compound 375, 4-[(4-methyl-1H-indol-5-yl)amino]-2-[3-(methylsulfonyl)phenyl]thieno[2,3-b]pyridine-5-carbonitrile] gave a pIC50 of 7.39.
The molecule `Cc1c(Nc2c(C#N)cnc3sc(-c4ccc(S(C)(=O)=O)cc4)cc23)ccc2[nH]ccc12` [Compound 376, 4-[(4-methyl-1H-indol-5-yl)amino]-2-[4-(methylsulfonyl)phenyl]thieno[2,3-b]pyridine-5-carbonitrile] had a pIC50 of 7.59.
Regarding `Cc1c(Nc2c(C#N)cnc3sc(-c4cccc(Br)c4)cc23)ccc2[nH]ccc12` [Compound 377, 2-(3-bromophenyl)-4-[(4-methyl-1H-indol-5-yl)amino]thieno[2,3-b]pyridine-5-carbonitrile], the negative logarithm of the IC50 (pIC50) was 6.85.
With `Cc1cc(C=O)cc(-c2cc3c(Nc4ccc5[nH]ccc5c4C)c(C#N)cnc3s2)c1` [Compound 378, 2-(3-formyl-5-methylphenyl)-4-[(4-methyl-1H-indol-5-yl)amino]thieno[2,3-b]pyridine-5-carbonitrile], the negative logarithm of the IC50 (pIC50) was 7.01.
